Results on two molecules are retold here after PMC6746701, “A phyB-PIF1-SPA1 kinase regulatory complex promotes photomorphogenesis in Arabidopsis” (Nature Communications, 2019).

One assay addresses T1, phyA (Arabidopsis thaliana, UniProt P14712).
T1 construct: holoprotein purified from Saccharomyces cerevisiae
T1 sequence (P14712 1-1122): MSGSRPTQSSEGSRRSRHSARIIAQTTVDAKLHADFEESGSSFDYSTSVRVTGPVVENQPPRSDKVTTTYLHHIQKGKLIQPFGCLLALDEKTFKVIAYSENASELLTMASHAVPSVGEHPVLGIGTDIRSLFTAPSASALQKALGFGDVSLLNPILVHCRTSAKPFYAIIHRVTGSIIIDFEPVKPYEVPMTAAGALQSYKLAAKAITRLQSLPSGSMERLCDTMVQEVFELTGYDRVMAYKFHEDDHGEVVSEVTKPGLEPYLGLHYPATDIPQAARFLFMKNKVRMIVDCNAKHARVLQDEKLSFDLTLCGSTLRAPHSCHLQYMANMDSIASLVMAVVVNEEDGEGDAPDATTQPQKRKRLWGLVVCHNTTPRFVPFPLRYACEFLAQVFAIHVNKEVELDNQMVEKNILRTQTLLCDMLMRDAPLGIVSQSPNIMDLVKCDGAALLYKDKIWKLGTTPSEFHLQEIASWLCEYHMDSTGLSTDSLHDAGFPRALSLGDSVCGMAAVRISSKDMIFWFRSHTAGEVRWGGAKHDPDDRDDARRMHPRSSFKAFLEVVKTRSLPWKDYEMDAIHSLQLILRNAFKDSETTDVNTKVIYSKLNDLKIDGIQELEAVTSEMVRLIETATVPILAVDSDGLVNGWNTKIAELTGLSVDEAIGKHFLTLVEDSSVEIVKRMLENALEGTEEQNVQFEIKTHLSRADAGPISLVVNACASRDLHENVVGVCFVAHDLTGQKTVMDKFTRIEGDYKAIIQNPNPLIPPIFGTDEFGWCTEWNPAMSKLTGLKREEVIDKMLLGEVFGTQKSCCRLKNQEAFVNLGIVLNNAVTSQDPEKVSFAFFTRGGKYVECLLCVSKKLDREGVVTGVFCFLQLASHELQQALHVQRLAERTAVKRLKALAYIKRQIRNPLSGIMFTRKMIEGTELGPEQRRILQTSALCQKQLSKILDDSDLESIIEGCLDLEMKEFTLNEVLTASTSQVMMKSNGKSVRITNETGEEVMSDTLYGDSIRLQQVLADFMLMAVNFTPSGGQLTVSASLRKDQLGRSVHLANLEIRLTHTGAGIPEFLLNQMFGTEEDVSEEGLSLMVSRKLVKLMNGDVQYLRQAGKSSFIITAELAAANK
Description: in vitro kinase assay, autoradiogram. Type of assay: biochemical. The note with it: PIF1 as co-substrate, 10 mM MgCl2, pH 7.5, 28 °C; labelled compound (gamma-32P).

The target of assay [1] is T2, phyB-GFP ΔC purified from yeast (Saccharomyces cerevisiae) (Arabidopsis, UniProt P14713 1-1092, phycocyanobilin (PCB) chromophore assembled).
T2 construct: phytochrome B (phyB), Arabidopsis, residues 1-1092 (lacks the last 80 amino acids); The methods describe the yeast purification only for the full-length protein; also called phyB ΔC-GFP; source: Saccharomyces cerevisiae, purified; not shown: GFP, C-terminal, kept
T2 sequence (looked up): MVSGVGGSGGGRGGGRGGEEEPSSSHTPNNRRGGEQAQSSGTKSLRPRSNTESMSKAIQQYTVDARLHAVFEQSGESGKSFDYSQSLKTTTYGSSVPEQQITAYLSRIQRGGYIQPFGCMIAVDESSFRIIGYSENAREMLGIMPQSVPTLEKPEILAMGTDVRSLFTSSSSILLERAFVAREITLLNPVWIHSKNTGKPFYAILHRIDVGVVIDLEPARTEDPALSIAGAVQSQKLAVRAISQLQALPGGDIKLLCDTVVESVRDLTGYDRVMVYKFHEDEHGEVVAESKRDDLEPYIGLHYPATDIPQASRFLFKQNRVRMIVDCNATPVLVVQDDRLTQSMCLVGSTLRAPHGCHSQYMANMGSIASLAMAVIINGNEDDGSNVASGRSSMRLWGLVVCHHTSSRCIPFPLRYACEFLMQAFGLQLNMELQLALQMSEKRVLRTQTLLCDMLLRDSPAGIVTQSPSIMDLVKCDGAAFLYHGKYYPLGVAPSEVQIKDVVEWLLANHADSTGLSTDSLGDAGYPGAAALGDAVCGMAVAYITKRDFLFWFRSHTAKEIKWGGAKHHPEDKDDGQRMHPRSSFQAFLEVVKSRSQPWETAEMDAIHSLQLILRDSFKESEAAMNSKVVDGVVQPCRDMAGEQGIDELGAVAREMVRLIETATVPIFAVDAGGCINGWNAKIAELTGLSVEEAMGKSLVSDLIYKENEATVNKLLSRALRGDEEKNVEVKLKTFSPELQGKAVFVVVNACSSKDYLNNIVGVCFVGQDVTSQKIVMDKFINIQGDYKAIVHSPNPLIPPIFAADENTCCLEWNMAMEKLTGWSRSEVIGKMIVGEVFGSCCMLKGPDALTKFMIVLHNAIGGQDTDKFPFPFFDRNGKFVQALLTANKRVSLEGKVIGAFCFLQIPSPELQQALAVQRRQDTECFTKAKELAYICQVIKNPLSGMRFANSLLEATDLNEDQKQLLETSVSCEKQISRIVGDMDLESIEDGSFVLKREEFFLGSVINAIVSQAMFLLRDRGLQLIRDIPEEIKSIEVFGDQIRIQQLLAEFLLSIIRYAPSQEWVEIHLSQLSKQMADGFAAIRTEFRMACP
Nature of the assay: pull-down; in vitro: phytochromes purified from yeast (S. cerevisiae) and GST-PIF1; light-dependent. The conditions noted are these: both partners purified.

Consider `Nc1ncnc2c1ncn2[C@@H]1O[C@H](COP(=O)(O)OP(=O)(O)OP(=O)(O)O)[C@@H](O)[C@H]1O` [ATP], for which, at phyA, the “in vitro kinase assay, autoradiogram” value is “In this assay, both phyA and phyB phosphorylated PIF1 in vitro”.

B1: GST-PIF1-strep (natural protein, Arabidopsis, UniProt Q8GZM7 1-478, looked up)
chain: MHHFVPDFDTDDDYVNNHNSSLNHLPRKSITTMGEDDDLMELLWQNGQVVVQNQRLHTKKPSSSPPKLLPSMDPQQQPSSDQNLFIQEDEMTSWLHYPLRDDDFCSDLLFSAAPTATATATVSQVTAARPPVSSTNESRPPVRNFMNFSRLRGDFNNGRGGESGPLLSKAVVRESTQVSPSATPSAAASESGLTRRTDGTDSSAVAGGGAYNRKGKAVAMTAPAIEITGTSSSVVSKSEIEPEKTNVDDRKRKEREATTTDETESRSEETKQARVSTTSTKRSRAAEVHNLSERKRRDRINERMKALQELIPRCNKSDKASMLDEAIEYMKSLQLQIQMMSMGCGMMPMMYPGMQQYMPHMAMGMGMNQPIPPPSFMPFPNMLAAQRPLPTQTHMAGSGPQYPVHASDPSRVFVPNQQYDPTSGQPQYPAGYTDPYQQFRGLHPTQPPQFQNQATSYPSSSRVSSSKESEDHGNHTTG
notes: source: E. coli BL21(DE3), purified (Strep-Tactin Sepharose); not shown: GST, N-terminal, kept; Strep tag, C-terminal, kept
For the molecule B1, in assay [1], the binding result was “binds”.
